“Also recorded” adds a separate entry of the source. Like-named read-outs stand apart in the source and are kept apart here.
Tests used:
ACHE [1] = biological target: T1, ACHE (Homo sapiens (Human), UniProt P22303); assay: ACHE inhibition, colorimetric with substrate and Ellman's reagent; assay type: biochemical; conditions: for Inhibition of ACHE: [ATC] = 0.1 mM
BCHE [2] = biological target: T2, BCHE (Homo sapiens (Human), UniProt P06276); assay: biochemical; assay type: biochemical; conditions: for Mode of Inhibition: Irreversible = enzyme covalently modified
T2 sequence (P06276 29-602, species assumed): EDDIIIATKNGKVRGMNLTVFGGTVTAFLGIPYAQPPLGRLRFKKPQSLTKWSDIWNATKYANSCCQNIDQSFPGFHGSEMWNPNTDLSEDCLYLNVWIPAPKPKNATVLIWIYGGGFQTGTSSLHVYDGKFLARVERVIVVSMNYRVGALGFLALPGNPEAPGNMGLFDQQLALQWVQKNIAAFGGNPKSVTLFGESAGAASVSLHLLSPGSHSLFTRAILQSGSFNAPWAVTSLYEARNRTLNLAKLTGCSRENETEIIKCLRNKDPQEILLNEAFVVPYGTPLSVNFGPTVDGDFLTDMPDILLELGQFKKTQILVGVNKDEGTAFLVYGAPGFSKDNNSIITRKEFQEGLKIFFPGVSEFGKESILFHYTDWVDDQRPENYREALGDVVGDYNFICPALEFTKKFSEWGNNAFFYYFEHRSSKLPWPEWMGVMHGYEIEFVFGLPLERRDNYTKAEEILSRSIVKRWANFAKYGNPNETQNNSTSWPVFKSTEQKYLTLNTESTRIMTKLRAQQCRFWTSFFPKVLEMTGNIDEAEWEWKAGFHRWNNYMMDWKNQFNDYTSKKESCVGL
Experimental: The compounds referred to herein have BCHE inhibitory activity. To determine the inhibitory values, enzymes were incubated for 2 hours in the presence of varying concentrations of compound prior to activity measurements. Activity is then measured colorimetrically upon addition of substrate and Ellman's reagent.

BCHE [3] = biological target: T2, BCHE; assay type: biochemical; conditions: 20 μM inhibitor, 2 minutes; Activity of Inhibitor incubated enzyme/Activity of unincubated enzyme
ACHE [4] = biological target: T1, ACHE; assay: Relative Activity of ACHE, 20 μM inhibitor for 2 minutes; assay type: biochemical; conditions: Activity of Inhibitor incubated enzyme/Activity of unincubated enzyme
Experimental: In order to compare the relative inhibitory activity of the five compounds 27, 35, 89, 90 and 92 against BCHE and ACHE, a solution of each enzyme was incubated with 20 μM of the inhibitor for 2 minutes, and the enzyme activity determined. Table 5 lists the Relative Activity (=Activity of Inhibitor incubated enzyme/Activity of unincubated enzyme).

β-amyloid plaque = assay: In vivo β-amyloid plaque formation, immunohistochemistry; parameters: species or system transgenic Alzheimer's mice
From the text: Images show immunohistochemistry of 13-month transgenic Alzheimer's disease mice brains at subiculum region of hippocampus, treated with DB2CIPP and DMSO control beginning at 9 months. […] Selective inhibition of butyrylcholinesterase in the brain is widely documented as a potential treatment for Alzheimer's disease and dementia, by improving cognition and modulating neuropathological markers of the disease. As an inhibitor of butyrylcholinesterase, DB2CIPP may also be used to inhibit or slow the progression of the Alzheimer's-like symptoms seen in long COVID.

[5] = biological target: serum acetylcholinesterase (Mus musculus (Mouse), UniProt P21836); assay: In vivo serum acetylcholinesterase activity; parameters: species or system transgenic Alzheimer's mice; conditions: 10 mg and 20 mg doses over 11 months and 13 months; listed as DB2CIPP
Chain of serum acetylcholinesterase (P21836 32-614 limits assumed): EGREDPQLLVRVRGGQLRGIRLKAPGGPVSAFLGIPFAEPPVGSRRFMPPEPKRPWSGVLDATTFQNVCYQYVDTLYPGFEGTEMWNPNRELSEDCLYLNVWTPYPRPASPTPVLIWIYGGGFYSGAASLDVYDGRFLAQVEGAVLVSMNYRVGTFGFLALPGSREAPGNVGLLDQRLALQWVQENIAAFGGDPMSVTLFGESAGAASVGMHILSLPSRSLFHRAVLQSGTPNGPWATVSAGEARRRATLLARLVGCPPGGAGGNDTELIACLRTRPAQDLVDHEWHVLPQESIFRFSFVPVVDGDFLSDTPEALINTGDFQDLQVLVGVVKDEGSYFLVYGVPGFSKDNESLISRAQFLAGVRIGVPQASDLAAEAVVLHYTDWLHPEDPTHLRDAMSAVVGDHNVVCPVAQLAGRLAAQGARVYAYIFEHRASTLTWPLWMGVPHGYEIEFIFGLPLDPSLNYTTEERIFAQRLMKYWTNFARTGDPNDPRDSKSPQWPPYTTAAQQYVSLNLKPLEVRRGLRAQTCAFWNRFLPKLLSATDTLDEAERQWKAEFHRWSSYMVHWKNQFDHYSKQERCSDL
From the text: (§1) DB2CIPP Testing Results Inhibition of BChE in brain and serum. Di-n-butyl 2 chlorophenyl phosphate (DB2CIPP) inhibits BChE in brain and serum without inhibiting AChE in serum (see FIG. 5, FIG. 7, and FIG. 8).

[6] = biological target: hippocampal butyrylcholinesterase (Mus musculus (Mouse), UniProt Q03311); assay: In vivo hippocampal butyrylcholinesterase activity; parameters: species or system transgenic Alzheimer's mice; conditions: 10 mg and 20 mg doses over 11 months; listed as DB2CIPP
Chain of hippocampal butyrylcholinesterase (Q03311 30-603 limits assumed): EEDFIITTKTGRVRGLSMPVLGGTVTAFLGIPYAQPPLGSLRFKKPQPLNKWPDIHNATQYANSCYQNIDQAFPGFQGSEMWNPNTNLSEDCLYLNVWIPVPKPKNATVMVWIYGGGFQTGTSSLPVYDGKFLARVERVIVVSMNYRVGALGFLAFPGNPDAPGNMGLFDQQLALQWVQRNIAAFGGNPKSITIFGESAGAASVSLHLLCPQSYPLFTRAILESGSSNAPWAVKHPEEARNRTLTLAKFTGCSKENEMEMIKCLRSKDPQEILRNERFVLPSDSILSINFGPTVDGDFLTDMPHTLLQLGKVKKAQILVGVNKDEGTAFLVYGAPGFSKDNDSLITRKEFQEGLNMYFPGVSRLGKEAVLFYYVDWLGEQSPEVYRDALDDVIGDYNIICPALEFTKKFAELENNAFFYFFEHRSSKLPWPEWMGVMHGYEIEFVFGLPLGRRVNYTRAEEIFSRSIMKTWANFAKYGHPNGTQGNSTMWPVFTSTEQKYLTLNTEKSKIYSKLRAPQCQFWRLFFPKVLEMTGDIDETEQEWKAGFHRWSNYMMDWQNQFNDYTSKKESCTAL
From the text: as §1

Aβ (1-40) peptide = Aβ (1-40) peptide (Homo sapiens, UniProt P05067); assay: Thioflavin T fluorescence assay of β-amyloid peptide aggregation; assay type: biochemical; conditions: 30 μM peptide, 25° C., 2 hours, ThT fluorescence
Experimental: Neurotoxic plaques, i.e., aggregates of β-amyloid peptide, bind thioflavin T (ThT) and show significant fluorescence.
Aβ (1-40) peptide was solubilized in hexafluoroisopropanol (HFIP). A solution of 25 μM ThT was prepared in 0.025 M phosphate buffer, pH 6.0. Peptide was dissolved in 0.01 M PBS; 0.1M NaCl, pH7.4 to a final concentration of 30 μM. Inhibitors were prepared in methanol. The final concentration of HFIP and methanol were 2% and 10% (v/v) respectively. The control sample consisted peptide incubated in PBS/2% HFI/10% methanol without inhibitor. All samples were mixed and incubated at 25° C. for 2 hours. Fluorescence was measured by mixing 470 μL of ThT solution with 30 μL of the protein solution. Excitation and emission wavelengths were 440 nm with 5 nm slit width and 485 nm with 10 nm slit width, respectively. Biological activity was calculated as percent of inhibitory activity of inhibitor at varying concentration was calculated using the following equation: Vi=100−[(Fi−Fb)/F0]×100. The higher the Vi, the less aggregation of amyloid peptide.

[7] = In vivo blood brain barrier crossing; conditions: other in vivo tests
[8] = biological target: serum butyrylcholinesterase (Mus musculus (Mouse), UniProt Q03311); assay: In vivo serum butyrylcholinesterase activity; parameters: species or system transgenic Alzheimer's mice; conditions: 10 mg and 20 mg doses over 11 months and 13 months; listed as DB2CIPP
Chain of serum butyrylcholinesterase (Q03311 30-603 limits assumed): as above
From the text: as §1

[9] = enzyme incubated 2 hours with compound
[10] = enzyme incubated 2 hours with compound, read-out: BCHE Ki ± SEM

T1 sequence (P22303 32-614): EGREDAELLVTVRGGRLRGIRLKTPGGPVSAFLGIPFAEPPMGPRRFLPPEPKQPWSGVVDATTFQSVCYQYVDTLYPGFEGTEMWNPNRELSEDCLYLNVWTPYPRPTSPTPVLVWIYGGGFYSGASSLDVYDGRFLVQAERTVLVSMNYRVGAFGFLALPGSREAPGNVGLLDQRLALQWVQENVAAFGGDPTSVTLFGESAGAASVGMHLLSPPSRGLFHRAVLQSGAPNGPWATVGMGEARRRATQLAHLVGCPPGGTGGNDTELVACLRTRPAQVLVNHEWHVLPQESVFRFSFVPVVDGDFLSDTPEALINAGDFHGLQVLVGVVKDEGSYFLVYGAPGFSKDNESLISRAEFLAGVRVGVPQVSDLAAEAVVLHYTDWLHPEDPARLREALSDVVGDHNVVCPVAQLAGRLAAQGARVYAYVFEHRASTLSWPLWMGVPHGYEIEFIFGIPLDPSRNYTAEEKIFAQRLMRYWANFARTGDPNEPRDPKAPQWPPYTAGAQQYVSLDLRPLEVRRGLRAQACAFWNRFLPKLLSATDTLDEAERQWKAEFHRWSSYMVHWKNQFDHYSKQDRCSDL

O=P(Oc1ccccc1)(OC1CCCCC1)OC1CCCCC1 [Compound 98, Di-cyclohexyl phenyl phosphate]
Inhibition of ACHE (ACHE [1]; inhibitor 3 mM): ^eNo inhibition at [1f] = 3 mM and [ATC] = 0.1 mM.
Ki (BCHE [2]): 7 µM
Mode of Inhibition (BCHE [2]): ^aPartial competitive.

CCCCOP(=O)(Cc1cccc2ccccc12)OCCCC [Compound 89, Di-n-butyl 1-naphthylmethylphosphonate]
Relative Activity of BCHE (BCHE [3]): 0.47
Relative Activity of ACHE (ACHE [4]): 0.96
Mode of Inhibition (BCHE [2]): Irreversible^g

CCCCOP(=O)(OCCCC)OCCCCCCCCOP(=O)(OCCCC)OCCCC [Compound 64, Tetrabutyl octane-1,8-diyl bisphosphate]
IC50 (BCHE [2]; [9]): 2.39 µM

CCCCOP(=O)(OCCCC)OCCCOP(=O)(OCCCC)OCCCC [Compound 59, Tetrabutyl propane-1,3-diyl bisphosphate]
IC50 (BCHE [2]; [9]): 0.79 µM

CCCCOP(=O)(OCCCC)Oc1ccccc1Cl [Compound 9, Di-n-butyl 2-chlorophenyl phosphate]
Beta amyloid plaques immunopositive staining in the hippocampus (β-amyloid plaque; 10 mg or 20 mg doses over 13 months, vs untreated mice): reduced
Inhibition of β-amyloid plaque formation (β-amyloid plaque; 13-month mice, subiculum region of hippocampus, treated beginning at 9 months, vs DMSO control, listed as DB2CIPP): significant inhibition
Serum acetylcholinesterase activity [5]: substantially not altered; also recorded: not significantly altered
Inhibition of hippocampal butyrylcholinesterase activity [6]: significant inhibition
Inhibition of aggregation of β-amyloid peptides (Aβ (1-40) peptide): did not inhibit
Ability to cross the blood brain barrier (BBB) [7]: cross the blood brain barrier
IC50 (ACHE [1]): 47 µM
IC50 (ACHE [1]; [9]): 47 µM
IC50 (BCHE [2]): 0.00069 µM
Selectivity toward BCHE over ACHE (BCHE [2]; ACHE IC50 vs BCHE IC50): approximately 68,000 fold
Mode of Inhibition (BCHE [2]): Irreversible^g
IC50 (BCHE [2]; [9]): 0.00069 µM
Inhibition of serum butyrylcholinesterase activity [8]: significant inhibition

CCCCOP(=O)(OCCCC)OCCOCCOP(=O)(OCCCC)OCCCC [Compound 65, Tetrabutyl 3-oxapentane-1,5-diyl bisphosphate]
IC50 (BCHE [2]; [9]): 31.2 µM

CCOP(=O)(OCC)OCCCCCOP(=O)(OCC)OCC [Compound 55, Tetraethyl pentane-1,5-diyl bisphosphate]
IC50 (BCHE [2]; [9]): 35.4 µM

CCCOP(=O)(OCCC)Oc1ccccc1 [Compound 95, Di-n-propyl phenyl phosphate]
Inhibition of ACHE (ACHE [1]; inhibitor 5 mM): ^b<20% Inhibition at [lc] = 5 mM and [ATC] = 0.1 mM.

CCOP(=O)(OCC)OCCOCCOP(=O)(OCC)OCC [Compound 58, Tetraethyl 3-oxapentane-1,5-diyl bisphosphate]
IC50 (BCHE [2]; [9]): 11.1 µM

CCOP(=O)(OCC)OCCCCCCCOP(=O)(OCC)OCC [Compound 57, Tetraethyl heptane-1,7-diyl bisphosphate]
IC50 (BCHE [2]; [9]): 40.1 µM

CCCCOP(=O)(OCCCC)Oc1ccccc1 [Compound 96, Di-n-butyl phenyl phosphate]
Inhibition of ACHE (ACHE [1]; inhibitor 1 mM): ^cNo inhibition at [1d] = 1 mM and [ATC] = 0.1 mM.

O=P(OCCCCCCOP(=O)(Oc1ccccc1)Oc1ccccc1)(Oc1ccccc1)Oc1ccccc1 [Compound 67, Tetraphenyl hexane-1,6-diyl bisphosphate]
Inhibition of aggregation of β-amyloid peptides (Aβ (1-40) peptide): significantly inhibited
Mode of Inhibition (BCHE [2]): Reversible

CCCCOP(=O)(OCCCC)Oc1ccc2ccccc2c1 [Compound 35, Di-n-butyl 2-napthyl phosphate]
Relative Activity of BCHE (BCHE [3]): 0.10
Relative Activity of ACHE (ACHE [4]): 0.84
Ki (BCHE [2]): 1.9 µM
Mode of Inhibition (BCHE [2]): Reversible

CCCCOP(=O)(Cc1cc(C)cc(C)c1)OCCCC [Compound 92, Di-n-butyl 3,5-dimethylbenzylphosphonate]
Relative Activity of BCHE (BCHE [3]): 0.64
Relative Activity of ACHE (ACHE [4]): 0.99
Mode of Inhibition (BCHE [2]): Irreversible^g

CCCCOP(=O)(OCCCC)OCCCCCOP(=O)(OCCCC)OCCCC [Compound 61, Tetrabutyl pentane-1,5-diyl bisphosphate]
IC50 (BCHE [2]; [9]): 2.72 µM

CCCCCOP(=O)(OCCCCC)Oc1ccccc1 [Compound 97, Di-n-pentyl phenyl phosphate]
Inhibition of ACHE (ACHE [1]; inhibitor 3 mM): ^d<8% Inhibition at [le] = 3 mM and [ATC] = 0.1 mM.
Ki (BCHE [2]): 6 µM
Mode of Inhibition (BCHE [2]): ^aPartial competitive.

CCOP(=O)(OCC)OCCCCOP(=O)(OCC)OCC [Compound 54, Tetraethyl butane-1,4-diyl bisphosphate]
IC50 (BCHE [2]; [9]): 8.2 µM

CCCCOP(=O)(OCCC=CCCOP(=O)(OCCCC)OCCCC)OCCCC [Compound 66, Tetrabutyl 3-hexene-1,6-diyl bisphosphate]
IC50 (BCHE [2]; [9]): 1.2 µM

CCCCOP(=O)(OCC)Oc1ccccc1 (racemic) [Compound 99, (±)-n-Butyl ethyl phenyl phosphate]
Inhibition of ACHE (ACHE [1]; inhibitor 3 mM): ^f<8% inhibition at [2] = 3 mM and [ATC] = 0.1 mM.

CCOP(=O)(OCC)OCCCCCCOP(=O)(OCC)OCC [Compound 56, Tetraethyl hexane-1,6-diyl bisphosphate]
Inhibition of aggregation of β-amyloid peptides (Aβ (1-40) peptide): significantly inhibited
Mode of Inhibition (BCHE [2]): Reversible
Ki (BCHE [2]; [10]): 228 µM

CCOP(=O)(OCC)Oc1ccccc1 [Compound 94, Diethyl phenyl phosphate]
Ki (ACHE [1]): 3.1 mM
Ki (BCHE [2]): 55 µM

CCCCOP(=O)(OCCCC)OCCCCCCCOP(=O)(OCCCC)OCCCC [Compound 63, Tetrabutyl heptane-1,7-diyl bisphosphate]
IC50 (BCHE [2]; [9]): 3.95 µM

CCCCOP(=O)(Cc1ccc2ccccc2c1)OCCCC [Compound 90, Di-n-butyl 2-naphthylmethylphosphonate]
Relative Activity of BCHE (BCHE [3]): 0.45
Relative Activity of ACHE (ACHE [4]): 0.95
Mode of Inhibition (BCHE [2]): Irreversible^g

CCCCOP(=O)(OCCCC)Oc1cc(C)cc(C)c1 [Compound 27, Di-n-butyl 3,5-dimethylphenyl phosphate]
Relative Activity of BCHE (BCHE [3]): 0.45
Relative Activity of ACHE (ACHE [4]): 0.93
Ki (BCHE [2]): 1 µM
Mode of Inhibition (BCHE [2]): Reversible

CCOP(=O)(OCC)OCCCOP(=O)(OCC)OCC [Compound 53, Tetraethyl propane-1,3-diyl bisphosphate]
IC50 (BCHE [2]; [9]): 8.26 µM

CCCCOP(=O)(OCCCC)OCCCCCCOP(=O)(OCCCC)OCCCC [Compound 62, Tetrabutyl hexane-1,6-diyl bisphosphate]
Inhibition of aggregation of β-amyloid peptides (Aβ (1-40) peptide): significantly inhibited
Mode of Inhibition (BCHE [2]): Reversible
Ki (BCHE [2]; [10]): 4 µM

CCCCOP(=O)(OCCCC)OCCCCOP(=O)(OCCCC)OCCCC [Compound 60, Tetrabutyl butane-1,4-diyl bisphosphate]
IC50 (BCHE [2]; [9]): 88.1 µM

COP(=O)(OC)Oc1ccccc1 [Compound 93, Dimethyl phenyl phosphate]
Ki (ACHE [1]): 6.5 mM
Ki (BCHE [2]): 1700 µM

From patent publication US20260015372A1, “Organophosphorous Compounds and Uses Thereof” (priority 2022, published 2026)
